We go through 1 compound from article PMC8952364, “Polyphenols as Inhibitors of Antibiotic Resistant Bacteria—Mechanisms Underlying Rutin Interference with Bacterial Virulence” (Pharmaceuticals, 2022).

SMILES strings stand for the structures.

Data set [1] concerns P. aeruginosa IBRS P001 biofilm. The data set can be described thus: Crystal violet antibiofilm assay (biofilm formation). In kind it is cell-based, Pseudomonas aeruginosa. As to conditions: 24 h. The essentials:
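After incubation, biofilms were washed with PBS (pH 7.4), methanol-fixed and stained 30 min with 0.1% crystal violet. Stain was solubilised in 96% ethanol and read at 620 nm. Values are biofilm-forming capacity (%) relative to control.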

Data set [2] deals with 24 h old P. aeruginosa IBRS P001 biofilms. The data set can be described thus: Biofilm eradication, MTT assay (cell viability). The format is cell-based, Pseudomonas aeruginosa. Here is the method: The impact of rutin on P. aeruginosa IBRS P001 biofilm formation was determined as previously described by estimating the metabolic activity of microbial cells using an MTT assay. […] The supernatants were then ejected and the biofilms washed with PBS. MTT reagent (200 μL, 0.5 mg/mL) was added and the plate was incubated at 37 °C in the dark for 2 h. The resulting dye was dissolved in DMSO and the absorbance was measured at 570 nm in a microtiter plate reader Multiskan™ FC Microplate Photometer, Thermo Scientific™. The inhibition percentage of biofilm cell viability was calculated:%Inhibition = [(A570control − A570sample)/A570control] × 100
The bacterial cells were incubated in TSB enriched with 2% glucose in 96-well plates (Sarstedt, Germany) with adhesive bottom at 37 °C for 24 h. After incubation, wells were washed with PBS, and rutin (MBC–4 MBC) in TSB with 2% glucose was added. Incubation continued at 37 °C for another 24 h. The planktonic cells were removed.
The assays continued as described above for the crystal violet antibiofilm assay for the measurement of biofilm mass, biofilm MTT assay for the interference with cell viability, Congo red binding assay for estimation of exopolysaccharide production, and eDNA assay.
A general note: Formazan colour is commonly taken as a measure of viable cells.

Data set [3] concerns P. aeruginosa IBRS P001. The data set is described as follows: Catheter biofilm eradication model (24 h old biofilm). In kind it is cell-based, Pseudomonas aeruginosa. The procedure: For the catheter biofilm eradication assay, P. aeruginosa and MRSA were incubated in TSB with 2% glucose with 1 cm long catheters in 24-well plates at 37 °C for 24 h. […] Subsequently, the catheters were washed and treated, as described above.

A further data set has as its system MRSA IBRS MRSA 011. The data set is described as follows: Catheter biofilm inhibition model. The format is cell-based, Staphylococcus aureus. As to conditions: even in the sub-MIC concentration, 24 h. The procedure: The method was performed as described previously, with some modifications. Sterile silicon 16-mm Romed catheters (Van Oostveen Medical, Wilnis, The Netherlands) were cut into 1 cm lengths and placed in 24-well plates (Sarstedt, Nümbrecht, Germany). P. aeruginosa IBRS P001 and MRSA in TSB with 2% glucose (Torlak, Belgrade, Serbia) and rutin (0.25–1 MIC) were added for the inhibition assay. After incubation (37 °C, 24 h), the catheters were washed with PBS and transferred to 1.5 mL tubes. PBS was added and tubes were vortexed vigorously. The samples were diluted and seeded onto Plate Count Agar (HiMedia Laboratories, Mumbai, India). After being incubated at 37 °C for 24 h, the CFU (colony forming units) count was determined and the inhibition percentage relative to the untreated control was calculated.

In the next data set the test system is rhlI. The data set is described as follows: RT-qPCR analysis of QS genes. The format is cell-based, Pseudomonas aeruginosa. As to conditions: 0.5 MIC, 0.25 mg/mL, vs untreated control. The procedure:
(§1) Reverse transcription-quantitative PCR (RT-qPCR) was performed to reveal the impact of rutin on the P. aeruginosa IBRS P001 quorum sensing (QS) regulatory genes expression. The total RNA was extracted from the P. aeruginosa IBRS P001 test strain (grown for 10 h, 37 °C, aerobically) cultivated in Mueller-Hinton medium and supplemented with rutin (0.250 mg/mL, final concentration) or without it by an RNeasy Mini Kit (Qiagen, Hilden, Germany). The same volume of the ethanol (solvent) was added in the positive control. The total RNA was then treated with DNase I using an Ambion DNA-freeTM Kit (ThermoFisher, Waltham, MA, USA) and reverse transcribed by a Rever-tAid RT Reverse transcription Kit (ThermoFisher, Waltham, MA, USA) according to the manufacturer’s instructions. […] Obtained data were normalized against the ribosomal gene rpsL as an internal control following the 2^−ΔΔCT method. Experiments were done in triplicate.
(In general: Real-time PCR tracks product formation cycle by cycle.)

A further data set has as its system lasI. The data set can be described thus: RT-qPCR analysis of QS genes. The format is cell-based, Pseudomonas aeruginosa. The settings on record: 0.5 MIC, 0.25 mg/mL, vs untreated control. Here is the method:
as §1

For another data set, the system named is mvfR. The data set can be described thus: RT-qPCR analysis of QS genes. In kind it is cell-based, Pseudomonas aeruginosa. The settings on record: 0.5 MIC, 0.25 mg/mL, vs untreated control. Here is the method: as §1
A further data set concerns lasR. The data set can be described thus: RT-qPCR analysis of QS genes. The format is cell-based, Pseudomonas aeruginosa. As to conditions: 0.5 MIC, 0.25 mg/mL, vs untreated control. The procedure: as §1
For another data set, the system named is rhlR. The data set is described as follows: RT-qPCR analysis of QS genes. The format is cell-based, Pseudomonas aeruginosa. The settings on record: 0.5 MIC, 0.25 mg/mL, vs untreated control. Here is the method:
as §1

A further data set relates to pqsA. The data set is described as follows: RT-qPCR analysis of QS genes. In kind it is cell-based, Pseudomonas aeruginosa. The settings on record: 0.5 MIC, 0.25 mg/mL, vs untreated control. Here is the method: as §1
For data set [4], the system named is P. aeruginosa IBRS P001. The data set is described as follows: Bacterial adhesion to HaCaT cells. In kind it is cell-based, Pseudomonas aeruginosa. The procedure:
HaCaT cells were grown until confluence in 24-well plates with an adhesive bottom. The medium was removed and DMEM without FBS containing the rutin (MIC and 0.5 MIC) was added. The samples were incubated at 37 °C for 15 min, and bacteria (P. aeruginosa IBRS P001 and MRSA IBRS MRSA 011) were added. After incubation at 37 °C for 1 h, the cells were washed three times with DMEM without FBS and lyzed with 1 mL of 1% (v/v) Tween-20 (SigmaAldrich, Germany) at 37 °C for 30 min. Afterwards, dilutions of the bacterial suspension in each well were made and seeded on Plate Count Agar plates. The number of CFU was determined after incubation at 37 °C for 18 h, and the percentage of adhered bacterial cells was calculated following the equation:% (adhesion relative to the control) = 100 × CFU (treated)/CFU (control)
With CFU (treated) representing the number of CFUs after the treatment of cells with rutin and CFU (control) representing the number of bacterial CFUs in the untreated sample. The solvent treated sample was used as the control.

The test system of another data set is P. aeruginosa MTCC 2488. Further details: method as in doi:10.1016/j.foodcont.2018.02.044. The settings on record: 48 h incubation, cited from earlier work.

Turning to `C[C@@H]1O[C@@H](OC[C@H]2O[C@@H](Oc3c(-c4ccc(O)c(O)c4)oc4cc(O)cc(O)c4c3=O)[C@H](O)[C@@H](O)[C@@H]2O)[C@H](O)[C@H](O)[C@H]1O` [Rutin, rutin], in [1] (MIC and sub-MIC, crystal violet, Figure 1), the “reduction of biofilm formation (biomass), in words” value was “significant (****, p < 0.0001) reduction”. The “biofilm biomass formed after treatment” value in [1] (MIC, 500 µg/mL) is reported as 6%. For the same compound, 500 µg/mL produced 94% inhibition in data set [1] (Pseudomonas aeruginosa, IBRSP001BIOFILM, 500 µg/mL (MIC)). Further, in [2] (Pseudomonas aeruginosa, MBC, 1 mg/mL, read-out: viability of cells within the biofilms), the viability (usually a per cent measure of how many cells are alive, often set against a control) at 1000 µg/mL was 92%. Also, the “viability of cells within the biofilms” value in data set [2] (maximal concentration examined (4 MBC)) is on record as 55%. The compound also showed a catheter biofilm eradicated in the data set on P. aeruginosa IBRS P001 [3] (2 MBC, 24 h old biofilm) of 73.7%. The “biofilm cells remained viable after the treatment” value in the data set on P. aeruginosa IBRS P001 [3] (24 h old catheter biofilm, concentration not printed (MBC-4MBC tested, probably 4 MBC)) was 10.9%. Further, in the data set on MRSA IBRS MRSA 011, the “catheter biofilm forming ability, in words” value is recorded as “significantly reduced”. The “downregulation of relative mRNA level” value is on record as 2.6 fold in the data set on rhlI and 3 fold in the data set on pqsA. Further, the “decrease of relative expression” value in the data set with lasI is 2.4 times; in the data set on mvfR it was 2.2 times; in the data set on lasR it was “about 1.7 times”; in the data set on rhlR, “about 1.7 times”. Also, the “reduction of CFU adhered to human keratinocytes” value is 25% in the data set on P. aeruginosa IBRS P001 [4] (0.5 MIC, 0.25 mg/mL) and 51% in the data set on P. aeruginosa IBRS P001 [4] (rutin MIC). For the same compound, the highest biofilm inhibition with P. aeruginosa MTCC 2488 (400 µg/mL) was 45.33%. Also, in the data set on P. aeruginosa MTCC 2488 (sub-MIC concentrations 50–400 µg/mL), the biofilm inhibition entry is recorded as “up to 50%”.
